These results are taken from US20100222217A1, “Fungicidal N-[2-(Haloalkoxy)Phenyl]Heteroarylcarboxamides” (priority 2005, published 2010).

Tested on in the first data set: not given
Test: not given
Conditions: not given
Broadly, the melting point is the temperature, or range, at which the solid turns liquid. As for `Cn1cc(C(=O)Nc2ccccc2OC(F)(F)C(F)C(F)(F)F)c(C(F)(F)F)n1` (stereo not drawn) [Compound I-1, N-[2-(1,1,2,3,3,3-Hexafluoropropoxy)phenyl]-1-methyl-3-trifluoromethyl-1H-pyrazole-4-carboxamide], the melting point fell in the range of 91 to 93 °C. For `Cn1cc(C(=O)Nc2ccccc2OC(F)(F)C(F)Cl)c(C(F)(F)F)n1` (stereo not drawn) [Compound I-3, N-[2-(2-Chloro-1,1,2-trifluoroethoxy)phenyl]-1-methyl-3-trifluoromethyl-1H-pyrazole-4-carboxamide], the melting point lay within 94 to 95 °C.

On to `Cn1cc(C(=O)Nc2ccccc2OC(F)(F)C(F)Cl)c(C(F)F)n1` (stereo not drawn) [Compound I-4, N-[2-(2-chloro-1,1,2-trifluoroethoxy)phenyl]-3-difluoromethyl-1-methyl-1H-pyrazole-4-carboxamide], for which the melting point lay within 110 to 111 °C. `Cn1cc(C(=O)Nc2ccccc2OC(F)(F)C(F)F)c(C(F)F)n1` [Compound I-5, N-[2-(1,1,2,2-tetrafluoroethoxy)phenyl]-3-difluoromethyl-1-methyl-1H-pyrazole-4-carboxamide]: the melting point lay within 117 to 119 °C. As for `Cc1nc(C(F)(F)F)c(C(=O)Nc2ccccc2OC(F)(F)C(F)F)s1` [Compound I-6, N-[2-(1,1,2,2-tetrafluoroethoxy)phenyl]-2-methyl-4-trifluoromethylthiazol-5-yl-carboxamide], the melting point is 118 to 120 °C. On the same count and under the same terms, the figure for `Cc1nc(C)c(C(=O)Nc2ccccc2OC(F)(F)C(F)F)s1` [Compound I-7, N-[2-(1,1,2,2-tetrafluoroethoxy)phenyl]-2,4-dimethylthiazol-5-ylcarboxamide] is 134 to 135 °C. With `Cc1nc(C(F)(F)F)c(C(=O)Nc2ccccc2OC(F)(F)C(F)C(F)(F)F)s1` (stereo not drawn) [Compound I-8, N-[2-(1,1,2,3,3,3-hexafluoropropoxy)phenyl]-2-methyl-4-trifluoromethylthiazole-5-carboxamide], the melting point lay within 70 to 71 °C. For `Cc1nc(C(F)(F)F)c(C(=O)Nc2ccccc2OC(F)(F)C(F)Cl)s1` (stereo not drawn) [Compound I-9, N-[2-(2-chloro-1,1,2-trifluoroethoxy)phenyl]-2-methyl-4-trifluoromethylthiazole-5-carboxamide], the melting point lay in the range of 80 to 81 °C.

The compound `Cc1nc(C(F)F)c(C(=O)Nc2ccccc2OC(F)(F)C(F)C(F)(F)F)s1` (stereo not drawn) [Compound I-11, N-[2-(1,1,2,3,3,3-hexafluoropropoxy)phenyl]-4-difluoromethyl-2-methylthiazole-5-carboxamide] gave a melting point of 89 to 92 °C. Take `O=C(Nc1ccccc1OC(F)(F)C(F)F)c1cccnc1Cl` [Compound I-12, N-[2-(1,1,2,2-tetrafluoroethoxy)phenyl]-2-chloronicotinamide]: the melting point is 126 to 128 °C. `O=C(Nc1ccccc1OC(F)(F)C(F)C(F)(F)F)c1cccnc1Cl` (stereo not drawn) [Compound I-13, N-[2-(1,1,2,3,3,3-hexafluoropropoxy)phenyl]-2-chloronicotinamide] showed a melting point of 85 to 91 °C. As to `O=C(Nc1ccccc1OC(F)(F)C(F)Cl)c1cccnc1Cl` (stereo not drawn) [Compound I-14, N-[2-(2-chloro-1,1,2-trifluoroethoxy)phenyl]-2-chloronicotinamide], the melting point lay in the range of 73 to 76 °C.

Another data set relates to Alternaria solani. As to the kind of experiment: Activity against early blight on tomatoes caused by Alternaria solani. In kind it is in vivo. To be noted: 250 ppm, tomato plants, protective spray, assessed after 5 days; untreated plants 90% infected. As for the experimental part: The active compounds were separately or jointly prepared as a stock solution comprising 25 mg of active compound which was made up to 10 ml using a mixture of acetone and/or dimethylsulfoxide and the emulsifier Uniperol® EL (wetting agent having emulsifying and dispersing action based on ethoxylated alkylphenols) in a volume ratio of solvent/emulsifier of 99 to 1. The mixture was then made up with water to 100 ml. This stock solution was diluted with the solvent/emulsifier/water mixture described to the desired concentration of active compounds.
Leaves of potted tomato plants of the cultivar “Goldene Königin” were sprayed to runoff point with an aqueous suspension having the concentration of active compounds stated below. The next day, the leaves were infected with an aqueous spore suspension of Alternaria solani in a 2% biomalt solution having a density of 0.17×10^6 spores/ml. The plants were then placed in a water vapor-saturated chamber at temperatures between 20 and 22° C. After 5 days, the disease on the untreated, but infected control plants had developed to such an extent that the infection could be determined visually in %.
`Cc1nn(C)cc1C(=O)Nc1ccccc1OC(F)(F)C(F)F` [N-[2-(1,1,2,2-tetrafluoroethoxy)phenyl]-1,3-dimethylpyrazol-4-yl-carboxamide]: the infection is listed as 60%.

In another data set the test system is Erysiphe [syn. Blumeria] graminis forma specialis. tritici. The experiment in a line: Activity against mildew of wheat caused by Erysiphe [syn. Blumeria] graminis forma specialis. tritici. In kind it is in vivo. To be noted: 63 ppm, wheat seedlings, protective spray, assessed after 7 days; untreated plants 90% infected. The procedure:
The active compounds were separately or jointly prepared as a stock solution comprising 25 mg of active compound which was made up to 10 ml using a mixture of acetone and/or dimethylsulfoxide and the emulsifier Uniperol® EL (wetting agent having emulsifying and dispersing action based on ethoxylated alkylphenols) in a volume ratio of solvent/emulsifier of 99 to 1. The mixture was then made up with water to 100 ml. This stock solution was diluted with the solvent/emulsifier/water mixture described to the desired concentration of active compounds. Leaves of potted wheat seedlings were sprayed to runoff point with an aqueous suspension having the active compound concentration stated below. The suspension was prepared as described above. 24 hours after the spray coating had dried on, the plants were dusted with spores of mildew of wheat (Erysiphe [syn. Blumeria] graminis forma specialis. tritici). The test plants were then placed in a greenhouse at temperatures between 20 and 24° C. and at 60 to 90% relative atmospheric humidity. After 7 days, the extent of the mildew development was determined visually in % infection of the entire leaf area.
In turn, `Cn1cc(C(=O)Nc2ccccc2OC(F)(F)C(F)F)c(C(F)(F)F)n1` [N-[2-(1,1,2,2-tetrafluoroethoxy)phenyl]-3-trifluormethyl-1-methylpyrazol-4-yl-carboxamide] had an infection of 70%.

Staying with this data set, now noted: 250 ppm, wheat seedlings, protective spray, assessed after 7 days; untreated plants 80% infected.
With `Cn1cc(C(=O)Nc2ccccc2OC(F)(F)C(F)F)c(C(F)(F)F)n1` [N-[2-(1,1,2,2-tetrafluoroethoxy)phenyl]-3-trifluormethyl-1-methylpyrazol-4-yl-carboxamide], the infection was 40%.
